The structures appear in SMILES notation. Structures can show the parent of a compound that is named as a salt.

For the compound `CC[C@@H](CN[C@@H]1COc2ccccc2SC1)CSc1ccccc1OC` (as salt: fumarate) [Compound 1-9, 3-(R)-[3-(2-Methoxyphenylthio)-2-(S)-ethylpropyl]amino-3,4-dihydro-2H-1,5-benzoxathiepine], the melting point fell in the range of 86 to 88 °C.

For `COc1ccccc1SC[C@H](CN[C@@H]1COc2ccccc2SC1)OC` (as salt: maleate) [Compound 1-1, 3-(R)-[3-(2-Methoxyphenylthio)-2-(S)-methoxypropyl]amino-3,4-dihydro-2H-1,5-benzoxathiepine], the melting point was determined as 122 °C.

The compound `COc1ccccc1SC[C@@H](CN[C@@H]1COc2ccccc2SC1)OC` (as salt: maleate) [Compound 1-2, 3-(R)-[3-(2-Methoxyphenylthio)-2-(R)-methoxypropyl]amino-3,4-dihydro-2H-1,5-benzoxathiepine] registered a melting point of 116 °C.

The compound `COc1ccccc1SC[C@@H](O)CN[C@@H]1COc2ccccc2SC1` (as salt: maleate) [Compound 1-5, 3-(R)-[3-(2-Methoxyphenylthio)-2-(S)-hydroxypropyl]amino-3,4-dihydro-2H-1,5-benzoxathiepine] had a melting point of 133 to 135 °C.

Compound `COc1ccccc1SC[C@H](O)CN[C@@H]1COc2ccccc2SC1` (as salt: maleate) [Compound 1-6, 3-(R)-[3-(2-Methoxyphenylthio)-2-(R)-hydroxypropyl]amino-3,4-dihydro-2H-1,5-benzoxathiepine] registered a melting point of 136 to 138 °C.

`CC[C@H](CN[C@@H]1COc2ccccc2SC1)CSc1ccccc1OC` (as salt: maleate) [Compound 1-10, 3-(R)-[3-(2-Methoxyphenylthio)-2-(R)-ethylpropyl]amino-3,4-dihydro-2H-1,5-benzoxathiepine]: the melting point came to 140 °C.

As for `CCC[C@@H](CN[C@@H]1COc2ccccc2SC1)CSc1ccccc1OC` (as salt: maleate) [Compound 1-11, 3-(R)-[3-(2-Methoxyphenylthio)-2-(S)-(n-propyl)propyl]amino-3,4-dihydro-2H-1,5-benzoxathiepine], the melting point was 132 to 133 °C.

Compound `CCC[C@H](CN[C@@H]1COc2ccccc2SC1)CSc1ccccc1OC` (as salt: maleate) [Compound 1-12, 3-(R)-[3-(2-Methoxyphenylthio)-2-(R)-(n-propyl)propyl]amino-3,4-dihydro-2H-1,5-benzoxathiepine] gave a melting point of 131 to 133 °C.

`COc1ccccc1SC[C@H](CN[C@@H]1COc2ccccc2SC1)C(C)C` (as salt: maleate) [Compound 1-13, 3-(R)-[3-(2-Methoxyphenylthio)-2-(S)-(isopropyl)propyl]amino-3,4-dihydro-2H-1,5-benzoxathiepine] had a melting point of 114 to 115 °C.

`COc1ccccc1SC[C@@H](C)CN[C@@H]1COc2ccc(C)cc2SC1` (as salt: maleate) [Compound 1-14, 3-(R)-[3-(2-Methoxyphenylthio)-2-(S)-methylpropyl]amino-7-methyl-3,4-dihydro-2H-1,5-benzoxathiepine] gave a melting point of 148 °C.

On to `COc1ccccc1SC[C@@H](C)CN[C@@H]1COc2cccc(C)c2SC1` (as salt: maleate) [Compound 1-15, 3-(R)-[3-(2-Methoxyphenylthio)-2-(S)-methylpropyl]amino-6-methyl-3,4-dihydro-2H-1,5-benzoxathiepine], for which the melting point lay within 111 to 113 °C.

Take `C[C@@H](CN[C@@H]1COc2ccccc2SC1)CSc1cccc2c1OCC2` (as salt: maleate) [Compound 1-16, 3-(R)-[3-(2,3-Dihydrobenzofuran-7-thio)-2-(S)-methylpropyl]amino-3,4-dihydro-2H-1,5-benzoxathiepine]: the melting point is 116 to 118 °C.

As to `Cc1cccc(SC[C@@H](C)CN[C@@H]2COc3ccccc3SC2)c1O` (as salt: maleate) [Compound 1-17, 3-(R)-[3-(2-Hydroxy-3-methylphenylthio)-2-(S)-methylpropyl]amino-3,4-dihydro-2H-1,5-benzoxathiepine], the melting point is 124 to 126 °C.

Take `C[C@@H](CN[C@@H]1COc2ccccc2SC1)CSc1ccccc1O` (as salt: maleate) [Compound 1-18, 3-(R)-[3-(2-Hydroxyphenylthio)-2-(S)-methylpropyl]amino-3,4-dihydro-2H-1,5-benzoxathiepine]: the melting point was in the range of 119 to 121 °C.

`CCc1cccc(SC[C@@H](C)CN[C@@H]2COc3ccccc3SC2)c1O` (as salt: maleate) [Compound 1-19, 3-(R)-[3-(2-Hydroxy-3-ethylphenylthio)-2-(S)-methylpropyl]amino-3,4-dihydro-2H-1,5-benzoxathiepine] had a melting point of 120 °C.

In turn, `CC[C@@H](CN[C@@H]1COc2ccccc2SC1)CSc1cccc(C)c1O` (as salt: maleate) [Compound 1-20, 3-(R)-[3-(2-Hydroxy-3-methylphenylthio)-2-(S)-ethylpropyl]amino-3,4-dihydro-2H-1,5-benzoxathiepine] displayed a melting point of 111 to 112 °C.

`Cc1cccc(SC[C@H](CN[C@@H]2COc3ccccc3SC2)C(C)C)c1O` (as salt: maleate) [Compound 1-21, 3-(R)-[3-(2-Hydroxy-3-methylphenylthio)-2-(S)-(isopropyl)propyl]amino-3,4-dihydro-2H-1,5-benzoxathiepine] had a melting point of 127 °C.

Compound `Cc1cccc(SC[C@@H](C)CN[C@@H]2COc3cccc(C)c3SC2)c1O` (as salt: maleate) [Compound 1-22, 3-(R)-[3-(2-Hydroxy-3-methylphenylthio)-2-(S)-methylpropyl]amino-6-methyl-3,4-dihydro-2H-1,5-benzoxathiepine] yielded a melting point of 108 to 109 °C.

In the case of `COc1cccc(SC[C@@H](C)CN[C@@H]2COc3ccccc3SC2)c1O` (as salt: maleate) [Compound 1-23, 3-(R)-[3-(2-Hydroxy-3-methoxyphenylthio)-2-(S)-methylpropyl]amino-3,4-dihydro-2H-1,5-benzoxathiepine], the melting point was in the range of 137 to 139 °C.

The compound `COc1cccc(SC[C@@H](C)CN[C@@H]2COc3ccccc3SC2)c1OC` (as salt: maleate) [Compound 1-24, 3-(R)-[3-(2,3-Dimethoxyphenylthio)-2-(S)-methylpropyl]amino-3,4-dihydro-2H-1,5-benzoxathiepine] gave a melting point of 117 to 119 °C.

Compound `CC(C)c1cccc(SC[C@@H](C)CN[C@@H]2COc3ccccc3SC2)c1O` (as salt: maleate) [Compound 1-25, 3-(R)-[3-(2-Hydroxy-3-(isopropyl)phenylthio)-2-(S)-methylpropyl]amino-3,4-dihydro-2H-1,5-benzoxathiepine] gave a melting point of 126 °C.

`Cc1cccc(O)c1SC[C@@H](C)CN[C@@H]1COc2ccccc2SC1` (as salt: maleate) [Compound 1-26, 3-(R)-[3-(2-Hydroxy-6-methylphenylthio)-2-(S)-methylpropyl]amino-3,4-dihydro-2H-1,5-benzoxathiepine] yielded a melting point of 153 to 154 °C.

In the case of `Oc1ccccc1SC[C@@H](O)CN[C@@H]1COc2ccccc2SC1` (as salt: oxalate) [Compound 1-3, 3-(R)-[3-(2-Hydroxyphenylthio)-2-(S)-hydroxypropyl]amino-3,4-dihydro-2H-1,5-benzoxathiepine], the melting point lay in the range of 176 to 177 °C.

`Oc1ccccc1SC[C@H](O)CN[C@@H]1COc2ccccc2SC1` (as salt: oxalate) [Compound 1-4, 3-(R)-[3-(2-Hydroxyphenylthio)-2-(R)-hydroxypropyl]amino-3,4-dihydro-2H-1,5-benzoxathiepine] displayed a melting point of 135 °C.

Source of the values: patent publication US7109234B2, “Benzoxathiepine derivatives and their use as medicines” (Pierre Fabre Medicament, priority 2001, dated 2006).
